Data taken from the OPERA property sets (Mansouri et al. 2018).

Conditions: for log10 BCF / log10 biotransformation half-life (days): fish

Structure (SMILES) | melting point [°C] | boiling point [°C] | also measured
C/C(=N/NC(=O)c1ccncc1)c1ccco1 | 202 |  | 
C#C[C@H](O)CC |  | 125 | 
CCCCOc1ccc(OCCCC)cc1 | 45.5 |  | 
O=S1(=O)OCCO1 | 99 |  | 
O=[N+]([O-])CCc1ccccc1 | -23 | 250 | 
OCCOCCOCCO | -7 | 285 | ready biodegradability: readily biodegradable
OCC(F)(F)C(F)C(F)(F)F (centres undefined) |  | 117 | 
Clc1ccc(Cn2cncn2)cc1Cl | 46.5 |  | 
Cc1ccc(N)nc1 | 76.5 | 227 | 
CCCCCCCCCCCC(=O)OCc1ccccc1 | 8.5 |  | 
O=C(CBr)OCC=CCOC(=O)CBr |  |  | ready biodegradability: readily biodegradable
CCC(C)(O)CCl (centres undefined) |  | 151 | 
CCCCCC#N | -80.3 | 164 | log10 Koa: 4.08; log10 vapour pressure (mmHg): 0.455
Nc1ccc(S(=O)(=O)c2ccc(N)cc2)cc1 | 176 |  | 
O=C(O)c1cccc(Cl)c1Cl | 169 |  | log10 vapour pressure (mmHg): -3.64
ClCCl | -95.1 | 40 | log10 Henry constant (atm·m³/mol): -2.49; log10 Koa: 2.27; log10 Koc (L/kg): 1.44; log10 vapour pressure (mmHg): 2.64; ready biodegradability: not readily biodegradable; log10 BCF: 1.36; log10 biotransformation half-life (days): -0.51
CC(=O)c1cccc(C(C)=O)c1 | 32 |  | 
CC(C)(C)NCCO | 44 | 176 | ready biodegradability: not readily biodegradable
CCCCC(=O)OCCC | -70.7 | 168 | 

Structure (SMILES) | melting point [°C] | boiling point [°C] | also measured
CCCOCC(C)O (centres undefined) | -80 | 150 | log10 vapour pressure (mmHg): 0.23
NC(=O)CCC/N=C(\c1ccc(Cl)cc1)c1cc(F)ccc1O | 134 |  | 
CCCOc1ccc([N+](=O)[O-])cc1NC(C)=O | 102 |  | 
CC(C)OC(=O)Nc1cccc(Cl)c1 | 41 |  | log10 Koc (L/kg): 2.6; log10 vapour pressure (mmHg): -3.74; ready biodegradability: readily biodegradable
Cc1cc(C)c(C)c(C)c1 | -23.7 | 198 | log10 biodegradation half-life (days): 0.477; log10 vapour pressure (mmHg): -0.303
O=C(Cc1ccccc1)Cc1ccccc1 | 35 | 331 | log10 vapour pressure (mmHg): -3.13
CC(C)c1cc(Oc2ccccc2)cc(C(C)C)c1NC(=S)NC(C)(C)C | 146 |  | 
CCCCNC(=S)NCCCC | 64 |  | 
CCOC(=O)C=Cc1ccccc1 | 7 | 271 | log10 vapour pressure (mmHg): -2.49
CCOc1cc(OP(=S)(OC)OC)nc(CC)n1 | -3.35 |  | log10 vapour pressure (mmHg): -4.1
CCOc1ccc(C(N)=O)cc1 | 209 |  | 
Cc1cc(N(C)C)nc(Cl)n1 | 87 |  | 
CC(=O)N1CCN(c2ccc(OC[C@H]3CO[C@](Cn4ccnc4)(c4ccc(Cl)cc4Cl)O3)cc2)CC1 | 146 |  | 
CC1CCC(C)C1=O (centres undefined) |  | 146 | 
CC=NNc1ccccc1 | 99.5 |  | 
C[C@H](Oc1ccccc1)C(=O)O | 118 | 266 | 
CCCCCCC=CCC(=O)O | 18 |  | 
Cc1cc(Cl)cc(Cl)c1Cl | 45.5 | 230 | 
Cc1ccccc1Oc1ccccc1[N+](=O)[O-] | 39.5 |  | 

Structure (SMILES) | melting point [°C] | boiling point [°C] | also measured
CC(C)CNCCO |  | 199 | 
CSCCC=O |  | 166 | 
Nc1ccc(Sc2ccc(N)cc2)cc1 | 108 | 361 | log10 Koc (L/kg): 2.04
CCCCc1cccc2ccccc12 | -19.8 | 289 | 
CCCCCCCNCCCCCCC | 31.5 | 271 | 
O=C(c1ccccc1)c1cccc(Br)c1 | 81 |  | 
Clc1ccccc1Cl | -16.7 | 180 | log10 Henry constant (atm·m³/mol): -2.72; log10 Koa: 4.36; log10 Koc (L/kg): 2.56; log10 vapour pressure (mmHg): 0.134; ready biodegradability: not readily biodegradable; log10 BCF: 2.43; log10 biotransformation half-life (days): 0.5
CCCCC(CC)CN1C(=O)C2C(C1=O)C1(C(C)C)C=CC2(C)CC1 (centres undefined) |  |  | ready biodegradability: not readily biodegradable; log10 BCF: 2.97; log10 biotransformation half-life (days): 0.31
CN1C(=O)C=CC1=O | 95 |  | 
Cn1cc[nH]c1=S | 146 | 280 | 
O=C(O)C1CCCCCC1 |  | 259 | 
CO[C@H](C(=O)c1ccccc1)c1ccccc1 | 49.5 |  | 
N#CCc1ccccc1 | -23.8 | 234 | log10 vapour pressure (mmHg): -1.05; ready biodegradability: readily biodegradable
COc1ccc2c(c1)C(=O)c1ccccc1C2=O |  |  | log10 vapour pressure (mmHg): -10.2
COc1nc(C)nc(NC(=O)NS(=O)(=O)c2ccccc2OCCCl)n1 | 186 |  | log10 Koc (L/kg): 2.02
CCCCCCCCCCCCCCCCCCCCCCCCCCCC(=O)O | 90.9 |  | 
CCP(=O)(c1ccccc1)c1ccccc1 | 122 |  | 
CCOCn1c(-c2ccc(Cl)cc2)c(C#N)c(Br)c1C(F)(F)F | 100 |  | 
